{"source": "patent US6923992B2", "about": "“Active compounds of Bao-Ji-Wan for anti-diarrhea and relieving gastrointestinal symptoms” (The Chinese University of Hong Kong, priority 2001, dated 2005)", "key": {"[1]": {"system": "Cl−-secreting human colonic cell line, T84", "experiment": "Inhibition of cAMP-activated Cl− secretion across T84 cell monolayers", "type": "cell-based", "details": "forskolin (10 μM), read-out: IC50, inhibition of forskolin-induced Cl− secretion"}, "[2]": {"system": "PGE2-induced fluid accumulation", "experiment": "PGE2-induced enteropooling assay (fluid accumulation) in rats", "type": "in vivo, Sprague-Dawley rats", "details": "for inhibition at 2 mg/kg: Rattus norvegicus, read-out: Inhibition of secretion", "method": "This example illustrates the ability of BJW and its active components, magnolol, honokiol and imperatorin, to inhibit PGE2-induced fluid accumulation in rats. Sprague-Dawley rats of either sex, in groups of 8 animals, weighing between 220 and 250 g were used. A modified PGE2-induced enteropooling assay (Robert et al., Prostaglandins 11(5):809-28 (1976)) was used. The test drugs or vehicle were administrated intergastrically to rats 60 min before the administration of PGE2 (100 μg/kg, i.g.). BJW was administered (i.g. 1.6 g/kg, 2× of recommended human dosage) once daily for two days before treatment with PGE2."}, "[3]": {"details": "rats, dose 2 mg/kg intergastrically 60 min before PGE2 (100 μg/kg, i.g.)"}}, "note": "Where two headings read alike, the source gives them in different places.", "data": [{"smiles": "CC(C)=CCOc1c2ccoc2cc2oc(=O)ccc12", "note": "[isoimperatorin]", "values": [{"measurement": "IC50", "setting": "[1]", "result": "4 to 7", "unit": "µg/mL"}]}, {"smiles": "C=CCc1ccc(O)c(-c2cc(CC=C)ccc2O)c1", "note": "[Magnolol, magnolol]", "values": [{"measurement": "inhibition at 2 mg/kg", "setting": "[2]", "result": 92, "unit": "%"}, {"measurement": "Fluid accumulation ratio (FA)", "setting": "[2]; [3]", "result": "3.28 ± 0.32", "unit": "fluid g/g intestine"}]}, {"smiles": "CC(C)=CCOc1c2occc2cc2ccc(=O)oc12", "note": "[Imperatorin, imperatorin]", "values": [{"measurement": "IC50", "setting": "[1]", "result": "4 to 7", "unit": "µg/mL"}, {"measurement": "inhibition at 2 mg/kg", "setting": "[2]; [3]", "result": 39, "unit": "%"}, {"measurement": "Fluid accumulation ratio (FA)", "setting": "[2]; [3]", "result": "8.87 ± 1.93", "unit": "fluid g/g intestine"}]}, {"smiles": "C=CCc1ccc(O)c(-c2ccc(O)c(CC=C)c2)c1", "note": "[Honokiol, honokiol]", "values": [{"measurement": "IC50", "setting": "[1]", "result": "4 to 7", "unit": "µg/mL"}, {"measurement": "inhibition at 2 mg/kg", "setting": "[2]; [3]", "result": 56, "unit": "%"}, {"measurement": "Fluid accumulation ratio (FA)", "setting": "[2]; [3]", "result": "7.06 ± 1.18", "unit": "fluid g/g intestine"}]}, {"smiles": "CN(C)C(=O)C(CCN1CCC(O)(c2ccc(Cl)cc2)CC1)(c1ccccc1)c1ccccc1", "note": "[Loperamide, loperamide, reference compound]", "values": [{"measurement": "inhibition at 2 mg/kg", "setting": "[2]", "result": 75, "unit": "%"}, {"measurement": "Fluid accumulation ratio (FA)", "setting": "[2]; [3]", "result": "5.09 ± 1.40", "unit": "fluid g/g intestine"}]}]}
